Key:
[1] = target: T1, Type-1 angiotensin II receptor (Bos taurus, UniProt P25104); test: Inhibition of [125I][Ile5]-AII binding to bovine adrenal cortex membrane Angiotensin II receptor type 1; type: tissue-based
T1 sequence (P25104 whole entry): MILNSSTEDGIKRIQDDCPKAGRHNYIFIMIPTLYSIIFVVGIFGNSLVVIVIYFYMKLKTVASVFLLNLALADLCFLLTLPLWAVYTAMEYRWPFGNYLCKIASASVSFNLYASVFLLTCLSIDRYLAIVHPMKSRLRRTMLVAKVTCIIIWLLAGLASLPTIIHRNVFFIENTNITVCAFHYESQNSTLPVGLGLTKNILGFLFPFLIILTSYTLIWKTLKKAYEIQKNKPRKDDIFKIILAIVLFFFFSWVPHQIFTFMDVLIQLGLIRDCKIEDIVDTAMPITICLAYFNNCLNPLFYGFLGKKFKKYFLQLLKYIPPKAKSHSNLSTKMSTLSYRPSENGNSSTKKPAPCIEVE

Oryctolagus cuniculus = species on record: Oryctolagus cuniculus; test: Potency of the Angiotensin II-induced contraction of rabbit aortic strips; type: functional, Aorta; conditions: for Kb: Oryctolagus cuniculus, Aorta, read-out: pA2 (converted)
[2] = target: Angiotensin II receptor (Rattus norvegicus) (UniProt P29089+P25095+P35351); test: In vivo antagonism of Angiotensin II induced dose-pressor response in male rats.; type: functional, organism-based

Row | SMILES | IC50 [1] [nM] | Kb (Oryctolagus cuniculus) [nM] | ED2 [2] [mg/kg] | pA2 (Oryctolagus cuniculus)
1 | CCCCc1nc2ccccc2n1Cc1cc([N+](=O)[O-])c(O)c([N+](=O)[O-])c1 | 1600 |  |  | 
2 | CCCCc1nc2ccccc2n1Cc1cc(C)c(O)c(I)c1 | 2200 |  |  | 
3 | CCCCc1nc2ccccc2n1CCc1cc(I)c(O)c(I)c1 | 81000 |  |  | 
4 | CCCCc1nc2c(C)ccnc2n1Cc1ccc(-c2ccccc2C(=O)O)cc1 |  | 7.94 | 0.45 | 
5 | CCCc1nc2c(C)ccnc2n1Cc1cc(Cl)c(O)c(Cl)c1 |  | 1.26 | 0.15 | 
6 | CCSc1nc2c(C)ccnc2n1Cc1ccc(-c2ccccc2C(=O)O)cc1 |  | 5.01 | 0.41 | 
7 | CSc1nc2c(C)ccnc2n1Cc1ccc(-c2ccccc2C(=O)O)cc1 |  | 10 | 0.97 | 
8 | CCCc1nc2cccnc2n1Cc1cc(Cl)c(O)c(Cl)c1 |  | 31.6 | 0.65 | 
9 | Cc1ccnc2c1nc(C1CC1)n2Cc1ccc(-c2ccccc2C(=O)O)cc1 |  | 2 | 0.075 | 
10 | Cc1ccnc2c1nc(CCCO)n2Cc1ccc(-c2ccccc2C(=O)O)cc1 |  | 501 |  | 
11 | COCc1nc2c(C)ccnc2n1Cc1ccc(-c2ccccc2C(=O)O)cc1 |  | 79.4 | 0.65 | 
12 | CCCCc1nc2ccccc2n1Cc1cc(C(C)(C)C)c(O)c(C(C)(C)C)c1 | > 100000 |  |  | 
13 | Oc1c(Cl)cc(Cn2c(C3CC3)nc3cccnc32)cc1Cl |  | 20 | 0.48 | 
14 | Oc1c(Cl)cc(Cn2c(C3CC3)nc3ncccc32)cc1Cl |  | 631 |  | 
15 | CCCc1nc2cccnc2n1Cc1ccc(-c2ccccc2C(=O)O)cc1 |  | 39.8 |  | 
16 | O=C(O)c1ccccc1-c1ccc(Cn2c(C3CC3)nc3c(C(=O)O)ccnc32)cc1 |  | 25.1 |  | 
17 | Cc1ccnc2c1nc(C1CC1)n2Cc1cc(Cl)c(O)c(Cl)c1 |  | 2 | 0.079 | 
18 | CCCCc1nc2ccccc2n1Cc1cc(I)c(O)c(I)c1 | 1500 |  |  | 
19 | CCCCc1nc2c(C)ccnc2n1Cc1cc(Cl)c(O)c(Cl)c1 |  | 10 | 0.55 | 
20 | CCCCc1nc2ncccc2n1Cc1cc(Cl)c(O)c(Cl)c1 |  | 398 |  | 

Row | SMILES | IC50 [1] [nM] | Kb (Oryctolagus cuniculus) [nM] | ED2 [2] [mg/kg] | pA2 (Oryctolagus cuniculus)
21 | CCCCc1nc2ccccc2n1Cc1ccc(O)cc1 | 8500 |  |  | 
22 | CCCCc1nc2ccccc2n1Cc1cc(Cl)c(O)c(Cl)c1 | 3200 | 63.1 | 6.5 | 
23 | CCCCc1nc2ccccc2n1Cc1ccc(O)c(C)c1 | 20000 |  |  | 
24 | CCCc1nc2c(Cl)ccnc2n1Cc1ccc(-c2ccccc2C(=O)O)cc1 |  | 7.94 | 0.66 | 
25 | O=C(O)c1ccccc1-c1ccc(Cn2c(C3CC3)nc3c(CO)ccnc32)cc1 |  | 10 |  | 
26 | Cc1ccnc2c1nc(C1CCC1)n2Cc1ccc(-c2ccccc2C(=O)O)cc1 |  | 5.01 | 0.25 | 
27 | Cc1ccnc2c1nc(C(C)C)n2Cc1ccc(-c2ccccc2C(=O)O)cc1 |  | 31.6 | 0.84 | 
28 | C/C=C/c1nc2c(C)ccnc2n1Cc1ccc(-c2ccccc2C(=O)O)cc1 |  | 5.01 | 0.35 | 
29 | CCCCc1nc2ccccc2n1Cc1cc(C)c(O)c([N+](=O)[O-])c1 | 2200 |  |  | 
30 | CCCCc1nc2ccccc2n1Cc1cc(Br)c(O)c(Br)c1 | 2500 |  |  | 
31 | CCCCc1nc2ccccc2n1Cc1cc(C)c(O)c(C)c1 | 4700 |  |  | 
32 | CCCCc1nc2ccccc2n1Cc1ccc(I)c(O)c1I | 33000 |  |  | 
33 | CCc1nc2c(C)ccnc2n1Cc1ccc(-c2ccccc2C(=O)O)cc1 |  | 1.26 | 0.29 | 
34 | CCCCc1nc(Cl)c(CO)n1Cc1ccc(-c2ccccc2-c2nnn[nH]2)cc1 [LOSARTAN] |  | 2.51 | 0.28 | 
35 | CCCCc1nc2c(C)cccc2n1Cc1cc(Cl)c(O)c(Cl)c1 |  | 20 | 1.3 | 
36 | CCCc1nc2ncccc2n1Cc1cc(Cl)c(O)c(Cl)c1 |  | 794 |  | 
37 | CCCc1nc2c(C)ccnc2n1Cc1ccc(-c2ccccc2C(=O)O)cc1 |  | 3.16 | 0.16 | 8.5
38 | Cc1ccnc2c1nc(C)n2Cc1ccc(-c2ccccc2C(=O)O)cc1 |  | 50.1 | 1.3 | 
39 | CCCCc1nc2cccnc2n1Cc1cc(Cl)c(O)c(Cl)c1 |  | 63.1 | 1.9 | 

Reference: ChEMBL document CHEMBL1127872, “Discovery and development of aryl-fused imidazole-based angiotensin II antagonists” (Bioorg Med Chem Lett, 1994)
